Tested on: 5-hydroxytryptophan (5-HTP)-induced defecation models of mice
Experiment: Effect on 5-hydroxytryptophan (5-HTP)-induced defecation models of mice in vivo
Details: male SLC:ICR mice; 30 mg/kg orally, 30 minutes before 10 mg/kg 5-HTP s.c.; stool scored during 30 minutes
Method: Effect on 5-hydroxytryptophan (5-HTP)-induced defecation models of mice in vivo:
The tests were conducted by using (R)-3-(2-(2-(4-methylpiperidine-1-yl)-ethyl)pyrrolidine-1-sulfonyl)phenol (synthesized according to a method described in WO 97/48681) known to be a selective 5-HT7 receptor antagonist as test compound 1 by a method of G. J. Sanger et al. (British Journal of Pharmacology, 130: 706-712, 2000).
Male SLC:ICR mice (6 weeks) were placed in a series of 5 stainless steel cages for mice. After the acclimation for one hour or longer, 30 mg/kg of test compound 1 was orally administered to them (n=10). 30 minutes after, 10 mg/5mL/kg of 5-HTP (or 5 mL/kg of physiological saline in a group in which 5-HTP was not used) was subcutaneously administered to the mice . The stool excreted by each mouse during 30 minutes after the administration was observed (the results were scored as follows: 0: normal stool or no defecation, 1: diarrhea or soft stool). The inhibitory rate (%) of test compound 1 was calculated while the score obtained by subtracting the score of the 5-HTP-free group from the score of the 5-HTP group was determined to be 100%.

SMILES: CC1CCN(CC[C@H]2CCCN2S(=O)(=O)c2cccc(O)c2)CC1 [test compound 1, (R)-3-(2-(2-(4-methylpiperidine-1-yl)-ethyl)pyrrolidine-1-sulfonyl)phenol]
- control rate (inhibitory rate of 5-HTP-induced diarrhea/soft stool score): 70%

From patent US20050148632A1, “Therapeutic agent for intestinal diseases and visceral pain” (priority 2002, published 2005)
